Measurements: patent US20230372276A1, “METHODS FOR DELIVERING MEDIUM CHAIN TRIGLYCERIDES WITH CONTROLLED PHARMACOKINETIC, SAFETY AND TOLERABILITY PROFILES” (Cerecin Inc., priority 2020, published 2023)

Assays:
[1] = Ethnicity analysis of total ketone exposure, Chinese vs Caucasian (Study 2 parts combined); format: in vivo, human (healthy young male Caucasian and Asian volunteers); conditions: healthy participants
Method: The present example investigates the pharmacokinetics, safety and tolerability of tricaprilin in healthy young male Caucasian and Asian volunteers to understand and elucidate any differences between the two populations and any identify any ethnic sensitivities. In this example, data from several studies were analyzed to evaluate any ethnicity differences in safety and tolerability of tricaprilin. The analyzed studies included Caucasian and Asian (Chinese) subjects and several analyses were conducted to compare the effects in Caucasians vs Asian. Ethnic Chinese participants were defined as all four grandparents being Chinese. The level of total ketones were quantitated using a validated LC-MS/MS bioanalytical assay.
Methods: Study 1 was a food effect study of a spray dried formulation of tricaprilin (AC-SD-01), conducted in healthy young males. […] Both of these studies included Caucasian and Asian (Chinese) subjects and several analyses were conducted to compare the effects in Caucasians vs Chinese. To explore whether ethnicity affects total ketone body exposure after tricaprilin administration, the pharmacokinetic parameters AUC0-t and Cmax from Study 2 were examined and grouped by an individual's ethnicity (Chinese or Caucasian).

[2] = both, human, in vivo

Exposure to total ketones, ethnic Chinese compared to Caucasians [1]: no different | increase of geometric mean Cmax for AcAc [2]: 2.3 fold | increase of geometric mean Cmax for total ketones [2]: 2.7 fold | increase of geometric mean Cmax for βHB [2]: 2.9 fold
SMILES: CCCCCCCC(=O)OCC(COC(=O)CCCCCCC)OC(=O)CCCCCCC [tricaprilin]
